Experimental data as given in the NIST ThermoML archive (doi:10.1021/je700236c).
Values joined by “and” are separate entries in the source; they are usually repeats but may differ in a detail not shown here. Equal values may be shown once. Numbers after ± are expanded uncertainties.

Conditions: Gas, Buoyancy - hydrostatic balance with magnetic suspension - two sinkers

FC(F)C(F)(F)F [pentafluoroethane]
Conditions	mass density
283.15 K, 207.2 kPa	10.978 ± 0.012 kg/m3 and 10.98 ± 0.012 kg/m3
283.15 K, 442.7 kPa	24.675 ± 0.022 kg/m3 and 24.667 ± 0.022 kg/m3
283.15 K, 617.4 kPa	35.904 ± 0.032 kg/m3 and 35.92 ± 0.032 kg/m3
283.15 K, 710.7 kPa	42.388 ± 0.04 kg/m3
283.15 K, 710.8 kPa	42.398 ± 0.04 kg/m3
283.15 K, 758.3 kPa	45.855 ± 0.044 kg/m3 and 45.853 ± 0.044 kg/m3
283.15 K, 811.7 kPa	49.881 ± 0.047 kg/m3 and 49.877 ± 0.047 kg/m3
283.15 K, 828 kPa	51.141 ± 0.049 kg/m3 and 51.137 ± 0.049 kg/m3
283.15 K, 857 kPa	53.429 ± 0.052 kg/m3 and 53.417 ± 0.052 kg/m3
283.15 K, 872.2 kPa	54.64 ± 0.054 kg/m3
283.15 K, 872.3 kPa	54.652 ± 0.054 kg/m3
283.15 K, 880 kPa	55.27 ± 0.055 kg/m3 and 55.283 ± 0.055 kg/m3
283.15 K, 889.1 kPa	56.021 ± 0.056 kg/m3
283.15 K, 889.2 kPa	56.023 ± 0.056 kg/m3
283.15 K, 901.7 kPa	57.048 ± 0.056 kg/m3 and 57.055 ± 0.057 kg/m3
293.15 K, 205.9 kPa	10.502 ± 0.012 kg/m3
293.15 K, 206 kPa	10.492 ± 0.012 kg/m3
293.15 K, 413.1 kPa	21.853 ± 0.019 kg/m3
293.15 K, 413.2 kPa	21.867 ± 0.019 kg/m3
293.15 K, 605 kPa	33.264 ± 0.03 kg/m3 and 33.278 ± 0.03 kg/m3
293.15 K, 799.7 kPa	45.976 ± 0.043 kg/m3
293.15 K, 799.8 kPa	45.993 ± 0.043 kg/m3
293.15 K, 901.5 kPa	53.187 ± 0.05 kg/m3 and 53.196 ± 0.05 kg/m3
293.15 K, 1000.4 kPa	60.669 ± 0.06 kg/m3
293.15 K, 1000.5 kPa	60.666 ± 0.06 kg/m3
293.15 K, 1051.5 kPa	64.739 ± 0.065 kg/m3 and 64.718 ± 0.065 kg/m3
293.15 K, 1101.2 kPa	68.839 ± 0.072 kg/m3
293.15 K, 1101.3 kPa	68.86 ± 0.072 kg/m3
293.15 K, 1133.2 kPa	71.588 ± 0.075 kg/m3 and 71.578 ± 0.075 kg/m3
293.15 K, 1149.6 kPa	73.019 ± 0.077 kg/m3
293.15 K, 1149.7 kPa	73.016 ± 0.077 kg/m3
293.15 K, 1170.5 kPa	74.869 ± 0.08 kg/m3
293.15 K, 1170.6 kPa	74.882 ± 0.08 kg/m3
293.15 K, 1181.8 kPa	75.887 ± 0.081 kg/m3
293.15 K, 1182 kPa	75.908 ± 0.081 kg/m3
293.15 K, 1192.1 kPa	76.823 ± 0.082 kg/m3
293.15 K, 1192.2 kPa	76.841 ± 0.082 kg/m3
293.15 K, 1200.9 kPa	77.624 ± 0.082 kg/m3
293.15 K, 1201 kPa	77.644 ± 0.083 kg/m3
303.15 K, 225.1 kPa	11.079 ± 0.012 kg/m3 and 11.067 ± 0.012 kg/m3
303.15 K, 411.9 kPa	20.874 ± 0.018 kg/m3 and 20.883 ± 0.018 kg/m3
303.15 K, 602.3 kPa	31.549 ± 0.028 kg/m3 and 31.562 ± 0.028 kg/m3
303.15 K, 800.1 kPa	43.526 ± 0.04 kg/m3 and 43.535 ± 0.04 kg/m3
303.15 K, 999.2 kPa	56.733 ± 0.055 kg/m3
303.15 K, 999.3 kPa	56.74 ± 0.055 kg/m3
303.15 K, 1202.4 kPa	71.762 ± 0.073 kg/m3 and 71.771 ± 0.073 kg/m3
303.15 K, 1299.2 kPa	79.657 ± 0.085 kg/m3
303.15 K, 1299.4 kPa	79.674 ± 0.085 kg/m3
303.15 K, 1406.6 kPa	89.099 ± 0.097 kg/m3
303.15 K, 1406.7 kPa	89.124 ± 0.097 kg/m3
